Test results published in patent publication US7517989B2, “Piperidine derivatives useful as modulators of chemokine receptor activity” (AstraZeneca AB, priority 2002, dated 2009).

system: Human eosinophils; experiment: Human eosinophil chemotaxis; assay type: cell-based; settings: compound concentration not given
Method: Human Eosinophil Chemotaxis
Human eosinophils were isolated from EDTA anticoagulated peripheral blood as previously described (Hansel et al., J. Immunol. Methods, 1991, 145, 105-110). The cells were resuspended at 10×10^6 ml^−1 in RPMI containing 200 IU/ml penicillin, 200 μg/ml streptomycin sulphate and supplemented with 10% HIFCS, at room temperature.
Eosinophils (700 μl) were pre-incubated for 15 mins at 37° C. with 7 μl of either vehicle or compound (100× required final concentration in 10% DMSO). The chemotaxis plate (ChemoTx, 3 μm pore, Neuroprobe) was loaded by adding 28 μl of a concentration of eotaxin (0.1 to 100 nM) containing a concentration of a compound according to the Examples or solvent to the lower wells of the chemotaxis plate. The filter was then placed over the wells and 25 μl of eosinophil suspension were added to the top of the filter. The plate was incubated for 1 hr at 37° C. in a humidified incubator with a 95% air/5% CO2 atmosphere to allow chemotaxis.
The medium, containing cells that had not migrated, was carefully aspirated from above the filter and discarded. The filter was washed once with phosphate buffered saline (PBS) containing 5 mM EDTA to remove any adherent cells. […] The number of eosinophils migrating was quantified according to the method of Strath et al., J. Immunol. […]

Row | SMILES | % Inhibition (3 nM Human Eotaxin) [%]
1 | O=C(O)[C@@H](c1ccccc1)N1CCO[C@H](CN2CCC(Oc3ccc(Cl)c(Cl)c3)CC2)C1 [Example 2, (α^4R,2R)-2-[[4-(3,4-dichlorophenoxy)-1-piperidinyl]methyl]-α-phenylmorpholineacetic acid] | 96.4
2 | O=C(O)C(c1ccccc1)N1CCCC(CN2CCC(Oc3ccc(Cl)c(Cl)c3)CC2)C1 (single isomer, unassigned) [Example 5, 3-[[4-(3,4-dichlorophenoxy)-1-piperidinyl]methyl]-alpha-phenyl-1-piperidineacetic acid] | 96.9

biological target: T1, human H1 receptor (Homo sapiens, UniProt P35367); experiment: Histamine H1 receptor binding, [3H]-pyrilamine displacement; settings: 1 nM [3H]-pyrilamine; membranes of recombinant CHO-1 cells expressing human H1 receptor; read-out: H1 antagonism pKi (converted)
T1 construct: purchased Euroscreen SA, Brussels, Belgium ES-390-M; host or cells: recombinant CHO-1 cells (membranes)
T1 sequence (P35367 whole entry): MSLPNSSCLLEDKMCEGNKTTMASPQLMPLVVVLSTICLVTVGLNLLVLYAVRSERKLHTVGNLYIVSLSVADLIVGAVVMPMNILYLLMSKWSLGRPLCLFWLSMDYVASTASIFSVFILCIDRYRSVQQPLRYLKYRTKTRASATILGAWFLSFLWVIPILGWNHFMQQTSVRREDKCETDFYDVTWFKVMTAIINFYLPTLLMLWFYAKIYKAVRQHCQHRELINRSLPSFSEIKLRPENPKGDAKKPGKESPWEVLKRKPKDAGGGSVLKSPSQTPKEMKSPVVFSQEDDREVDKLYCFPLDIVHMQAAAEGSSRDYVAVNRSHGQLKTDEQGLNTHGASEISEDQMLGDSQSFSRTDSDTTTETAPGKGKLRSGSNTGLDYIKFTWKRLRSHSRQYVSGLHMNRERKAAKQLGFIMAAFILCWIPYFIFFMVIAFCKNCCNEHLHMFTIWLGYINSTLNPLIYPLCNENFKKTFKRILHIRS

Row | Ki [nM] | SMILES
3 | 631 | Cc1cc(Cl)ccc1OC1CCN(CC2CN(C(C(=O)O)c3ccccc3)CCO2)CC1 (single isomer, unassigned) [Example 7]
4 | 316 | Cc1c(Cl)ccc(OC2CCN(CC3CN(C(C(=O)O)c4ccccc4)CCO3)CC2)c1Cl (single isomer, unassigned) [Example 9]
5 | 794 | Cc1c(Cl)ccc(OC2CCN(CC3CN(C(C(=O)O)c4ccccc4)CCO3)CC2)c1Cl (single isomer, unassigned) [Example 10]
6 | 25.1 | O=C(O)c1ccccc1N1CCO[C@H](CN2CCC(Oc3ccc(Cl)c(Cl)c3)CC2)C1 [Example 15, 2-[(2R)-2-[[4-(3,4-dichlorophenoxy)-1-piperidinyl]methyl]-4-morpholinyl]-benzoic acid]
7 | 126 | Cc1cc(Cl)ccc1OC1CCN(CC2CN(C(C(=O)O)c3ccccc3)CCO2)CC1 (single isomer, unassigned) [Example 8]
8 | 31.6 | O=C(O)c1ccccc1CN1CCO[C@H](CN2CCC(Oc3ccc(Cl)c(Cl)c3)CC2)C1 [Example 13, 2-[[(2R)-2-[[4-(3,4-dichlorophenoxy)-1-piperidinyl]methyl]-4-morpholinyl]methyl]-benzoic acid]
9 | 31.6 | Cc1c(Cl)ccc(OC2CCN(CC3CN(C(C(=O)O)c4ccccc4)CCO3)CC2)c1Cl (single isomer, unassigned) [Example 12]
10 | 251 | Cc1c(Cl)ccc(OC2CCN(CC3CN(C(C(=O)O)c4ccccc4)CCO3)CC2)c1Cl (single isomer, unassigned) [Example 11]
